According to patent US12024512B2, “Cocrystal” (TAKEDA PHARMACEUTICAL COMPANY LIMITED, priority 2016, dated 2024):

Tests used:
[1] = Recrystallization experiment: crystal form of precipitate from organic solvent; format: physicochemical; conditions: dissolved at 55° C., cooled to 5° C.
Procedure: (§1) Powder X-ray diffraction measurement was performed using Cu-Kα radiation and measured by horizontal multipurpose X-ray diffraction system Ultima IV manufactured by Rigaku Corporation. Differential scanning calorimetric or thermogravimetric measurement was performed using DSC1/700/903-2 manufactured by Mettler Toledo or TGA/DSC1/LF/629-2 manufactured by Mettler Toledo and measured at temperature rise rate 5° C./min. Infrared spectrum was measured using Fourier transform infrared spectrophotometer Shimadzu IR Prestige-21 manufactured by Shimadzu Corporation and mounting Dura Sample IR II manufactured by Smiths Detection and by a total reflection method absorption measurement method at resolution 4 cm^−1. Raman spectroscopy was measured using RXN2 manufactured by Kaiser Optical Systems and a laser light source at excitation wavelength 1064 nm. Single crystal X-ray diffraction was measured using Cu-Kα radiation and curved imaging plate single crystal automatic X-ray structure analyzer R-AXIS RAPID II manufactured by Rigaku Corporation. Initial phase was determined by the direct method and the structure was refined by SHELXL-97. […] Intrinsic dissolution rate measurement was evaluated using a compression-molded disc of a crystal powder alone and in 20 mmoL/L sodium phosphate buffer (pH 6.8) containing 0.2% (w/v) sodium lauryl sulfate and by a rotating disc method (rotating speed: 100 rpm). Dissolution test was performed using a powder obtained by physically mixing a crystal powder and lactose in the same weight as the crystal powder and evaluated in Fasted State Simulated Intestinal Fluid (FaSSIF) at 37° C. by a rotating paddle method (paddle rotating speed: 50 rpm). The drug concentration of a solution was determined by liquid chromatography using Alliance HPLC system e2695 and detector 2789 manufactured by Waters (separation column: YMCPackPro C18 4.6 mm[…]×150 mm, temperature: 40° C., mobile phase: 20 mmol/L sodium phosphate buffer (pH 6.8)/acetonitrile=60/40 (v/v), flow rate: 1 mL/min, ultraviolet absorption detection wavelength: 240 nm). As slurry experiment, a test solvent was added to a crystal powder, the mixture was stirred at about 25° C. for 24 hr in suspension, the obtained residue was collected by filtration, and the crystal form was confirmed by powder X-ray diffraction measurement or Raman spectroscopy. In the recrystallization experiment, crystals were dissolved in ethanol, acetone, 2-propanol, tetrahydrofuran, methyl ethyl ketone, ethyl acetate, isopropyl acetate, anisole or isobutyl acetate at 55° C., filtered through a filter, allowed to cool to 5° C. or allowed to cool to 5° C. after adding n-heptane to the solution, and the crystal form of the obtained precipitate was confirmed by powder X-ray diffraction measurement or Raman spectroscopy.

[2] = Slurry experiment: crystal form of residue after stirring in test solvent; format: physicochemical; conditions: about 25° C., 24 hr
Procedure: as §1

[3] = 2-propanol/n-heptane, n-heptane added
[4] = acetone/n-heptane, n-heptane added
[5] = anisole/n-heptane, n-heptane added
[6] = ethanol/n-heptane, n-heptane added
[7] = ethyl acetate/n-heptane, n-heptane added
[8] = isobutyl acetate/n-heptane, n-heptane added
[9] = isopropyl acetate/n-heptane, n-heptane added
[10] = methyl ethyl ketone/n-heptane, n-heptane added
[11] = tetrahydrofuran/n-heptane, n-heptane added

Structure (SMILES)	Crystal form of precipitate obtained by recrystallization experiment ([1]; 2-propanol)	Crystal form of precipitate obtained by recrystallization experiment [1, 3]	Crystal form of precipitate obtained by recrystallization experiment ([1]; acetone)	Crystal form of precipitate obtained by recrystallization experiment [1, 4]	Crystal form of precipitate obtained by recrystallization experiment ([1]; anisole)	Crystal form of precipitate obtained by recrystallization experiment [1, 5]	Crystal form of precipitate obtained by recrystallization experiment ([1]; ethanol)	Crystal form of precipitate obtained by recrystallization experiment [1, 6]	Crystal form of precipitate obtained by recrystallization experiment ([1]; ethyl acetate)	Crystal form of precipitate obtained by recrystallization experiment [1, 7]	Crystal form of precipitate obtained by recrystallization experiment ([1]; isobutyl acetate)	Crystal form of precipitate obtained by recrystallization experiment [1, 8]	Crystal form of precipitate obtained by recrystallization experiment ([1]; isopropyl acetate)	Crystal form of precipitate obtained by recrystallization experiment [1, 9]	Crystal form of precipitate obtained by recrystallization experiment ([1]; methyl ethyl ketone)	Crystal form of precipitate obtained by recrystallization experiment [1, 10]	Crystal form of precipitate obtained by recrystallization experiment ([1]; tetrahydrofuran)	Crystal form of precipitate obtained by recrystallization experiment [1, 11]	Crystal form of residue after slurry experiment ([2]; 2-propanol)	Crystal form of residue after slurry experiment ([2]; acetone)	further results
CCc1cc2c(c(OCC(F)(F)F)c(C(=O)NC3CCN(C(=O)CO)CC3)n2C)c(=O)n1CC(=O)c1ccccc1.O=C(O)C(O)C(O)C(=O)O [cocrystal with L-tartaric acid, cocrystal of 6-ethyl-N-[1-(hydroxyacetyl)piperidin-4-yl]-1-methyl-4-oxo-5-(2-oxo-2-phenylethyl)-3-(2,2,2-trifluoroethoxy)-4,5-dihydro-1H-pyrrolo[3,2-c]pyridine-2-carboxamide and L-tartaric acid]	cocrystal *	cocrystal *	free form (solvate)	cocrystal * + free form (solvate)	no precipitate	free form (solvate)	free form (solvate)	free form (solvate)	free form (solvate)	cocrystal * + free form (solvate)	cocrystal *	cocrystal *	free form (solvate)	cocrystal *	free form (solvate)	cocrystal *	free form (solvate)	cocrystal *	cocrystal* + free form (solvate)	cocrystal *	Crystal form of residue after slurry experiment ([2]; anisole): cocrystal* + free form (solvate); Crystal form of residue after slurry experiment ([2]; distilled water): cocrystal* + free form (solvate); Crystal form of residue after slurry experiment ([2]; ethanol): cocrystal * + free form (solvate); Crystal form of residue after slurry experiment ([2]; ethyl acetate): cocrystal* + free form (solvate); Crystal form of residue after slurry experiment ([2]; methyl ethyl ketone): cocrystal* + free form (solvate); Crystal form of residue after slurry experiment ([2]; tetrahydrofuran): cocrystal* + free form (solvate)
CCc1cc2c(c(OCC(F)(F)F)c(C(=O)NC3CCN(C(=O)CO)CC3)n2C)c(=O)n1CC(=O)c1ccccc1.O=C(O)C[C@H](O)C(=O)O [cocrystal with L-malic acid, cocrystal of 6-ethyl-N-[1-(hydroxyacetyl)piperidin-4-yl]-1-methyl-4-oxo-5-(2-oxo-2-phenylethyl)-3-(2,2,2-trifluoroethoxy)-4,5-dihydro-1H-pyrrolo[3,2-c]pyridine-2-carboxamide and L-malic acid]	no precipitate	cocrystal *	free form (solvate)	free form (solvate)	no precipitate	free form (solvate)	free form (solvate)	free form (solvate)	free form (solvate)	free form (solvate)	cocrystal * + free form (solvate)	free form (solvate)	free form (solvate)	cocrystal * + free form (solvate)	free form (solvate)	cocrystal + free form (solvate)	free form (solvate)	cocrystal + free form (solvate)	cocrystal *	cocrystal *	Crystal form of residue after slurry experiment ([2]; anisole): free form (solvate); Crystal form of residue after slurry experiment ([2]; distilled water): cocrystal* + free form (solvate); Crystal form of residue after slurry experiment ([2]; ethanol): cocrystal *; Crystal form of residue after slurry experiment ([2]; ethyl acetate): cocrystal* + free form (solvate); Crystal form of residue after slurry experiment ([2]; methyl ethyl ketone): cocrystal* + free form (solvate); Crystal form of residue after slurry experiment ([2]; tetrahydrofuran): free form (solvate)
